Measured values reported in US20060241066A1, “Decoy composition for treating and preventing inflammatory disease” (priority 2002, published 2006).
“Also recorded” adds a separate entry of the source.

Assays:
[1] = system: type II collagen arthritis model in apes; test: Type II collagen arthritis model in apes, intraarticular administration; assay type: in vivo, apes (macaque); conditions: for effective ratio: NF-κB decoy 10 mg/joint at two-week intervals, type II collagen articulitis model in apes; for change of the joints on X-ray photographs (synovial inflammation, joint swelling, joint cartilage, osteoclasis), FIG. 1: simian collagen arthritis model, radiograph
osteoarthritis rat model = test: Osteoarthritis model using rats, intraarticular administration, joint section slides (FIG. 2); conditions: listed as NF-κB decoys

Row | Substance | effective ratio [1] | change of the joints on X-ray photographs (synovial inflammation, joint swelling, joint cartilage, osteoclasis), FIG. 1 ([1]; listed as decoy of the present invention) | change of the joints on X-ray photographs (synovial inflammation, joint swelling, joint cartilage, osteoclasis), FIG. 1 ([1]; listed as decoys of the present invention) | effect on joint (section slide photographs), FIG. 2 (osteoarthritis rat model; administration of 10 mg of decoy) | effect on joint (section slide photographs), FIG. 2 (osteoarthritis rat model; administration of 30 mg of decoy) | effect compared with that of steroid, FIG. 2 (osteoarthritis rat model; decoy 10 mg and 30 mg versus steroid) | change of the joints on X-ray photographs (synovial inflammation, joint swelling, joint cartilage, osteoclasis), FIG. 1 [1] | change of the joints on X-ray photographs (synovial inflammation, joint swelling, joint cartilage, osteoclasis), FIG. 1 ([1]; listed as scrambled decoys)
1 | 5′-CCTTGAAGGGATTTCCCTCC-3′ (SEQ ID NO: 1) (chemistry not given here) [NF-κB decoy] | 3/4 | significant improvements | significant improvement | significant improvement; also recorded: significant effects | eliminated the joint inflammation; also recorded: destroyed the articulitis | exceeded that of steroids; also recorded: beyond those attained by the steroid |  | 
2 | 5′-CATGTCGTCACTGCGCTCAT-3′ (SEQ ID NO: 7); and 5′-ATGAGCGCAGTGACGACATG-3′ (SEQ ID NO: 8) (listed as DNA, chemistry not given here) [scrambled decoy, reference compound] | 1/4 |  |  |  |  |  | no effects | No effects
